# Measurements: patent EP4257135A1, “BENZIMIDAZOLE DERIVATIVES FOR PULMONARY ARTERIAL HYPERTENSION” (Justus-Liebig-Universität Gießen, priority 2022, dated 2023)
# System: SuHx-PAH
# Assay: SUGEN5416/chronic hypoxia PAH rat model, right heart catheterisation and histology
# Assay type: in vivo, Ratten
# Conditions: SuHx-PAH rats, three times weekly for two weeks, intratracheal nebulisation 275 nmol/kg
# Excerpt: Um das therapeutische Potenzial der EP300/CREBBP-Hemmung in vivo weiter zu erforschen, haben die Erfinder Versuchstiere in drei verschiedenen Nagetiermodellen mit etablierter PAH mit der Substanz SGC-CBP30 behandelt, wobei SGC-CBP30 durch intra-tracheale Vernebelung über zwei Wochen lang dreimal wöchentlich verabreicht wurde. Es wurden folgende drei verschiedenen Nagetiermodelle für eine PAH (FHR-PAH, MCT-PAH und SuHx-PAH) getestet: • Fawn-hooded hypertensive Ratten (FHR): Das ist ein genetischer Rattenstamm, bei dem PAH im Alter spontan auftritt und der ähnliche PAH-Anomalien aufweist, wie sie bei IPAH bei Menschen nach 40 Wochen auftreten. • Durch Monocrotalin (MCT) induziertes PAH-Rattenmodell. • Ein SUGEN5416/chronische Hypoxie (SuHx)-Rattenmodell für PAH, bei dem die Ratten eine einmalige Injektion von SUGEN5416 erhielten und anschließend einer chronischen Hypoxie (10% O2) ausgesetzt wurden (SuHx-PAH).
# Für die MCT-PAH wurden männlichen und weiblichen SD-Ratten (Sprague-Dawley-Ratten) subkutan 60 mg/kg MCT (Sigma, Katalog: C2401) injiziert, um PAH zu induzieren. Bei der SuHx-PAH erhielten SD-Ratten eine einmalige subkutane Injektion von SUGEN5416 (20 mg/kg) und wurden drei Wochen lang einer normobaren Hypoxie ausgesetzt, bevor sie für zwei Wochen an die Raumluft zurückkehrten. Zwei Wochen nach der MCT-Injektion bzw. drei Wochen nach der SUGEN5416-Injektion (sobald PAH festgestellt wurde) wurden die Ratten nach dem Zufallsprinzip in vier Gruppen eingeteilt und erhielten zwei Wochen lang dreimal wöchentlich entweder Vehikel (Verabreichung von 1 % Methylcellulose in destilliertem Wasser oder intratracheale Vernebelung von 4 % DMSO in PBS als Negativkontrolle), SGC-CBP30 (Verabreichung von 10 mg/kg in 1 % Methylcellulose + destilliertem Wasser) oder SGC-CBP30 (intratracheale Vernebelung von 275 nmol/kg in 4 % DMSO + PBS). Einjährige männliche und weibliche FHR-Ratten mit etablierter PAH wurden in dieselben vier Gruppen wie beim MCT-Modell eingeteilt und den selben Behandlungsmethoden unterzogen. Für die Vernebelung wurden die Ratten mit 3%igem Isofluran betäubt. Ein 16-Gauge-Katheter wurde in die Luftröhre eingeführt. Ein Vernebler (Aerogen) wurde an den Katheter angeschlossen, und für jede Behandlung wurde ein Volumen von 50 µl SGC-CBP30 oder dessen Vehikel (als Negativkontrolle) verabreicht. Nach zweiwöchiger Behandlung wurde eine Rechtsherzkatheteruntersuchung bei geschlossenem Thorax durchgeführt, um folgende hämodynamischen Daten zu erfassen: Systolischer Rechtsventrikulärer Druck (RVSP), mittlerer PA-Druck (mPAP), Herzzeitvolumen (CO) und Schlagvolumen (SV). Der Gesamtwiderstand der Lunge (TPR) wurde durch Division von mPAP durch CO ermittelt. Nach der hämodynamischen Messung wurden den Ratten Gewebeproben entnommen. Die Experimente wurden gemäß den Richtlinien des Canadian Council on Animal Care durchgeführt. Alle Protokolle wurden von der institutionellen Ethikkommission für Tiere (Tierschutzausschuss der Universität Laval) geprüft und genehmigt (Protokollnummer 2019-018-2). Alle Experimente folgten den Richtlinien für die präklinische Forschung bei PAH.
# Der schwarze Balken zeigt 50 µm an. Die Daten sind als Mittelwert ± SD angegeben und die statistische Analyse wurde mit einem ungepaarten Student's t-Test durchgeführt. FHR, MCT und SU5416/chronische Hypoxie-Ratten: *P<0,05, **P<0,01 und ***P<0,001 gegenüber den mit Vehikel behandelten Gruppen. MCT-Rattenmodell: §P<0,05, §§P<0,01 und §§§P<0,001 gegenüber der unbehandelten Kontrollgruppe. • A: Schematische Darstellung des Versuchsaufbaus für die Behandlung von Fawn-hooded hypertensive Ratten (FHR) mit dem EP300/CREBBP-Inhibitor SGC-CBP30, der selektiv auf die Acetyltransferase EP300/CREBBP wirkt. […]
# [1] = start three weeks after SUGEN5416
compound,measurement,setting,value
"COc1ccc(CCc2nc3cc(-c4c(C)noc4C)ccc3n2C[C@H](C)N2CCOCC2)cc1Cl [SGC-CBP30, 2-[2-(3-Chloro-4-methoxyphenyl)ethyl]-5-(3,5-dimethyl-1,2-oxazol-4-yl)-1-[(S)-2-(morpholin-4-yl)propyl]-1H-benzimidazole]",RVSP,[1],signifikanten Senkung
same,mPAP,[1],signifikanten Senkung
same,CO,,verbesserte CO und SV auch bei SUGEN5416/chronischer Hypoxie-PAH signifikant
same,SV,,verbesserte CO und SV auch bei SUGEN5416/chronischer Hypoxie-PAH signifikant
same,mediale Wanddicke der distalen PAs,,signifikant verringert
same,TPR,mPAP divided by CO,signifikanten Senkung
